Article PMC7211195 (Investigational New Drugs, 2019)
Where two headings read alike, the source gives them in different places.

Test: Lapatinib pharmacokinetics in rat blood plasma (BP), HPLC-MS/MS, noncompartmental analysis
Format: in vivo, rats
Settings: for MRT last: read-out: MRT0-t
Experimental: This study was conducted on rats, which are a promising model to predict P-gp-based drug-drug interactions at the human BBB [15]. The animals were allowed to acclimate for one week before the beginning of the experiments. Adult male Wistar-strain rats (weight 470–525 g) were used in the study. The animals were maintained under standard breeding conditions with a 12/12 h light-dark cycle (lights on at 6.00 a.m., lights off at 6.00 p.m.) at constant room temperature (23 ± 2 °C), relative humidity (55 ± 10%) and ad libitum access to food and water. The experimental protocol for this study was reviewed and approved by the Local Ethics Committee. To obtain consistent data, the study was based on the required minimum number of animals and observation time. […] Three rats were used at each time point (n = 3). In total, the research was conducted on 66 animals (n = 33 in the experimental group and n = 33 in the control group).
Elacridar was freshly dissolved in a vehicle at an initial concentration of 20 mg/mL. […] A volume of 80 μL of blood was collected from each rat by cutting off a piece of its tail. The blood samples were collected into heparinized test tubes at the following time points: […], and they were immediately centrifuged at 2880 g for 10 min at 4 °C. The anaesthetized rats (anaesthetized by intramuscular administration of 50 mg/kg ketamine and 10 mg/kg xylazine) were prepared for cisterna magna puncture. The hair over the puncture was removed and the skin was disinfected with alcohol. The animals were placed in a recumbent position with an elevated rear part of the body. The animals’ heads were slightly flexed and immobilized with the operator’s left hand. The space between the occiput rostrally and the atlas (C1) of the spinal column caudally was gently palpated with the left thumb. A 0.7 × 20 G needle with polyethylene tubing (Terumo Poland, Warsaw, Poland) was gently inserted at an approximate angle of 80–90° through the skin with the operator’s right hand into the midsagittal region. The moment that dura mater perforation was perceptible, a small amount of CSF was found in the needle tubing. To sample additional CSF, a 1 mL insulin syringe (Becton Dickinson, Warsaw, Poland) was used to collect 80–120 μL of CSF by very gentle aspiration. Only clear CSF was collected for further analysis. […] The animals’ brains were immediately dissected, washed in 0.9% NaCl and divided along the longitudinal axis. One of the brain hemispheres was again rinsed three times with 5 mL of 0.9% NaCl, weighed and homogenized with 0.9% NaCl (4 mL per 1 g of BT) in an Ultra-Turrax homogenizer (Witko, Łódź, Poland). The homogenate was then centrifuged at 4500 g for 10 min. All samples of the rat BP, CSF, and BT homogenate supernatant were stored at −80 °C until analysis.
The chromatographic analysis was conducted using a 1260 Infinity system (Agilent Technologies, Santa Clara, USA) equipped with a Kinetex® C18 column (50 × 4.6 mm, 2.6 μm, Phenomenex, Torrance, USA), which was maintained at 35 °C. The mobile phase consisted of 0.1% formic acid (v/v) in water with 5 mM ammonium formate (solvent A) and acetonitrile with 10% phase A (v/v, solvent B). The analyte and internal standard (IS, erlotinib) were eluted using a gradient run of 10 min as follows: 95% A at 0–2 min; 95%–5% A at 2–4 min; 5% A at 4–5 min; 5%–95% A at 5–6 min; 95% A at 6–10 min. The flow rate and injection volume were set at 0.7 mL/min and 10 μL, respectively. The needle was washed for 30 s in a mixture of acetonitrile, methanol, isopropanol, water, and formic acid (50:20:15:15:0.25, v/v/v/v/v).

[1] = blood plasma, lapatinib 100 mg/kg oral + 5 mg/kg elacridar (IE+L)
[2] = male, Wistar, rat, plasma, oral, lapatinib 100 mg/kg + elacridar, read-out: Clapatinib in BP, S
[3] = male, Wistar, rat, plasma, oral, lapatinib 100 mg/kg + elacridar, read-out: Clapatinib in BP, single rat
[4] = male, Wistar, rat, plasma, po, 100 mg/kg, blood plasma, lapatinib 100 mg/kg oral + 5 mg/kg elacridar (IE+L)
[5] = male, Wistar, rat, plasma, po, 100 mg/kg, blood plasma, lapatinib 100 mg/kg oral alone (IIL)
[6] = male, Wistar, rat, plasma, po, 100 mg/kg, lapatinib p.o. 100 mg/kg alone, read-out: Clapatinib in BP, S (medium value)
[7] = male, Wistar, rat, plasma, po, 100 mg/kg, lapatinib p.o. 100 mg/kg alone, read-out: Clapatinib in BP, single rat

Structure (SMILES): CS(=O)(=O)CCNCc1ccc(-c2ccc3ncnc(Nc4ccc(OCc5cccc(F)c5)c(Cl)c4)c3c2)o1 [lapatinib, N-{3-Chloro-4-[(3-fluorobenzyl)oxy]phenyl}-6-[5-({[2-(methylsulfonyl)ethyl]amino}methyl)-2-furyl]-4-quinazolinamine]
- plasma AUC0-t higher in IE+L than in IIL (BP, IE+L vs IIL group): 78.7%
- plasma AUC0-∞ higher in IE+L than in IIL (BP, IE+L vs IIL group): 155.6%
- plasma Cmax greater in IE+L than in IIL (BP, IE+L vs IIL group): 6.3%
- t0.5 prolongation when coadministered with elacridar (BP, IE+L vs IIL group): 5.2 fold
- Tmax [1]: 2.50 ± 0.71 h
- t0.5 [1]: 28.77 ± 6.00 h
- concentration of lapatinib after 24 h (each matrix sample (BP, CSF, BT), IIL group): undetectable
- concentration at 0.25 h [2]: 780 ng/mL
- concentration at 0.25 h [3]: 700 ng/mL
- concentration at 0.5 h [2]: 1520 ng/mL
- concentration at 0.5 h [3]: 1680 ng/mL
- concentration at 1 h [2]: 1980 ng/mL
- concentration at 1 h [3]: 2050 ng/mL
- concentration at 2 h [2]: 3070 ng/mL
- concentration at 2 h [3]: 2100 ng/mL
- concentration at 3 h [2]: 2460 ng/mL
- concentration at 3 h [3]: 2040 ng/mL
- concentration at 4 h [2]: 1310 ng/mL
- concentration at 4 h [3]: 1580 ng/mL
- concentration at 6 h [2]: 1340 ng/mL
- concentration at 6 h [3]: 1360 ng/mL
- concentration at 8 h [2]: 1780 ng/mL
- concentration at 12 h [2]: 2300 ng/mL
- concentration at 12 h [3]: 2280 ng/mL
- concentration at 24 h [2]: 1230 ng/mL
- concentration at 24 h [3]: 1300 ng/mL
- Cmax (male, Wistar, rat, plasma, po, 100 mg/kg): 3260 ± 810 ng/mL
- AUC(0-inf) [4]: 95100 ng·h/mL
- AUC(0-t) [4]: 43600 ng·h/mL
- k el [4]: 5.56e-06 s⁻¹
- MRT last [4]: 11.1 ± 0.5 h
- AUC(0-inf) [5]: 37200 ng·h/mL
- AUC(0-t) [5]: 24400 ng·h/mL
- k el [5]: 3.61e-05 s⁻¹
- MRT last [5]: 5.7 ± 0.43 h
- concentration at 0.25 h [6]: 650 ng/mL
- concentration at 0.25 h [7]: 530 ng/mL
- concentration at 0.5 h [6]: 1330 ng/mL
- concentration at 0.5 h [7]: 1210 ng/mL
- concentration at 1 h [6]: 2050 ng/mL
- concentration at 1 h [7]: 1830 ng/mL
- concentration at 2 h [6]: 2210 ng/mL
- concentration at 2 h [7]: 1950 ng/mL
- concentration at 3 h [6]: 2380 ng/mL
- concentration at 4 h [6]: 3260 ng/mL
- concentration at 4 h [7]: 3830 ng/mL
- concentration at 6 h [6]: 1940 ng/mL
- concentration at 6 h [7]: 1560 ng/mL
- concentration at 8 h [6]: 1940 ng/mL
- concentration at 8 h [7]: 2130 ng/mL
- concentration at 12 h [6]: 1500 ng/mL
- Tmax (male, Wistar, rat, plasma, po, 100 mg/kg, read-out: tmax): 4 h
